Measurements reported in PubChem BioAssay (NCI).
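In this assay, cells in 96-well plates receive the compound at five concentrations for 48 hours. Endpoints are linearly interpolated between the surrounding concentrations. Abbreviation: GI50, concentration required for 50% inhibition of growth. The concentration for full growth arrest is given as TGI.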

Experiments:
Assay in all cases: NCI-60 cell line screen, 48 h
HCT-116 colon = system: HCT-116 colon
RPMI-8226 leukemia = system: RPMI-8226 leukemia
NCI/ADR-RES ovarian = system: NCI/ADR-RES ovarian
NCI-H23 lung = system: NCI-H23 lung
KM12 colon = system: KM12 colon
LOX IMVI melanoma = system: LOX IMVI melanoma
A498 renal = system: A498 renal
U251 CNS = system: U251 CNS
UO-31 renal = system: UO-31 renal
HOP-92 NSCLC = system: HOP-92 NSCLC
HOP-62 NSCLC = system: HOP-62 NSCLC
SNB-19 CNS = system: SNB-19 CNS
MDA-MB-435 = system: MDA-MB-435
HCC-2998 colon = system: HCC-2998 colon
MOLT-4 leukemia = system: MOLT-4 leukemia
SK-MEL-5 melanoma = system: SK-MEL-5 melanoma
SNB-75 CNS = system: SNB-75 CNS
COLO 205 colon = system: COLO 205 colon
OVCAR-3 ovarian = system: OVCAR-3 ovarian
UACC-257 melanoma = system: UACC-257 melanoma
786-0 renal = system: 786-0 renal
T-47D breast = system: T-47D breast
HCT-15 colon = system: HCT-15 colon
HT29 colon = system: HT29 colon
CCRF-CEM leukemia = system: CCRF-CEM leukemia
SR leukemia = system: SR leukemia
NCI-H522 lung = system: NCI-H522 lung
K-562 leukemia = system: K-562 leukemia
M14 melanoma = system: M14 melanoma
NCI-H460 lung = system: NCI-H460 lung
OVCAR-4 ovarian = system: OVCAR-4 ovarian
CAKI-1 renal = system: CAKI-1 renal
SF-295 CNS = system: SF-295 CNS
HL-60(TB) leukemia = system: HL-60(TB) leukemia
A549 NSCLC = system: A549 NSCLC
RXF 393 renal = system: RXF 393 renal
UACC-62 melanoma = system: UACC-62 melanoma
IGROV1 ovarian = system: IGROV1 ovarian
OVCAR-5 ovarian = system: OVCAR-5 ovarian
OVCAR-8 ovarian = system: OVCAR-8 ovarian
MCF7 breast = system: MCF7 breast
NCI-H226 lung = system: NCI-H226 lung
SK-MEL-28 melanoma = system: SK-MEL-28 melanoma
SF-539 CNS = system: SF-539 CNS
MALME-3M melanoma = system: MALME-3M melanoma
SK-MEL-2 melanoma = system: SK-MEL-2 melanoma
ACHN renal = system: ACHN renal
PC-3 prostate = system: PC-3 prostate
SW-620 colon = system: SW-620 colon
SF-268 CNS = system: SF-268 CNS
TK-10 renal = system: TK-10 renal
EKVX NSCLC = system: EKVX NSCLC
SN12C renal = system: SN12C renal
DU-145 prostate = system: DU-145 prostate
MDA-MB-231 breast = system: MDA-MB-231 breast
HS 578T breast = system: HS 578T breast
BT-549 breast = system: BT-549 breast

COc1cc(Cl)c(C)cc1NC(=O)c1cc2ccccc2cc1O
GI50 (HCT-116 colon): 1.95 µM
TGI (HCT-116 colon): 7.1 µM
GI50 (RPMI-8226 leukemia): 1.46 µM
TGI (RPMI-8226 leukemia): 6.17 µM
GI50 (NCI/ADR-RES ovarian): 2.55 µM
TGI (NCI/ADR-RES ovarian): 9.04 µM
GI50 (NCI-H23 lung): 1.97 µM
TGI (NCI-H23 lung): 8.19 µM
GI50 (KM12 colon): 2.6 µM
TGI (KM12 colon): 8.15 µM
GI50 (LOX IMVI melanoma): 2.49 µM
TGI (LOX IMVI melanoma): 10.8 µM
GI50 (A498 renal): 1.65 µM
TGI (A498 renal): 4.77 µM
GI50 (U251 CNS): 2.2 µM
TGI (U251 CNS): 10.5 µM
GI50 (UO-31 renal): 1.29 µM
TGI (UO-31 renal): 10.6 µM
GI50 (HOP-92 NSCLC): 0.398 µM
TGI (HOP-92 NSCLC): 3.57 µM
GI50 (HOP-62 NSCLC): 2.37 µM
TGI (HOP-62 NSCLC): 10.3 µM
GI50 (SNB-19 CNS): 4.34 µM
TGI (SNB-19 CNS): 20.7 µM
GI50 (MDA-MB-435): 2.6 µM
TGI (MDA-MB-435): 8.92 µM
GI50 (HCC-2998 colon): 3.31 µM
TGI (HCC-2998 colon): 12.8 µM
GI50 (MOLT-4 leukemia): 2.85 µM
TGI (MOLT-4 leukemia): 14 µM
GI50 (SK-MEL-5 melanoma): 1.72 µM
TGI (SK-MEL-5 melanoma): 3.93 µM
GI50 (SNB-75 CNS): 2.4 µM
TGI (SNB-75 CNS): 9.37 µM
GI50 (COLO 205 colon): 2.37 µM
TGI (COLO 205 colon): 8.41 µM
GI50 (OVCAR-3 ovarian): 1.86 µM
TGI (OVCAR-3 ovarian): 7.09 µM
GI50 (UACC-257 melanoma): 1.94 µM
TGI (UACC-257 melanoma): 5.93 µM
GI50 (786-0 renal): 3.13 µM
TGI (786-0 renal): 8.53 µM
GI50 (T-47D breast): 2.07 µM
TGI (T-47D breast): 11.7 µM
GI50 (HCT-15 colon): 2.5 µM
TGI (HCT-15 colon): 13.4 µM
GI50 (HT29 colon): 2.88 µM
TGI (HT29 colon): 8.34 µM
GI50 (CCRF-CEM leukemia): 3.11 µM
TGI (CCRF-CEM leukemia): 19.6 µM
GI50 (SR leukemia): 2.79 µM
TGI (SR leukemia): 11.9 µM
GI50 (NCI-H522 lung): 1.46 µM
TGI (NCI-H522 lung): 4.47 µM
GI50 (K-562 leukemia): 2.82 µM
TGI (K-562 leukemia): 23 µM
GI50 (M14 melanoma): 2.85 µM
TGI (M14 melanoma): 9.53 µM
GI50 (NCI-H460 lung): 2.74 µM
TGI (NCI-H460 lung): 9.63 µM
GI50 (OVCAR-4 ovarian): 3.28 µM
TGI (OVCAR-4 ovarian): 18.5 µM
GI50 (CAKI-1 renal): 1.65 µM
TGI (CAKI-1 renal): 10.6 µM
GI50 (SF-295 CNS): 2.43 µM
TGI (SF-295 CNS): 7.91 µM
GI50 (HL-60(TB) leukemia): 1.89 µM
TGI (HL-60(TB) leukemia): 6.92 µM
GI50 (A549 NSCLC): 2.96 µM
TGI (A549 NSCLC): 10.6 µM
GI50 (RXF 393 renal): 2.84 µM
TGI (RXF 393 renal): 7.01 µM
GI50 (UACC-62 melanoma): 1.49 µM
TGI (UACC-62 melanoma): 8.14 µM
GI50 (IGROV1 ovarian): 3.04 µM
TGI (IGROV1 ovarian): 34.4 µM
GI50 (OVCAR-5 ovarian): 3.47 µM
TGI (OVCAR-5 ovarian): 14.1 µM
GI50 (OVCAR-8 ovarian): 2.7 µM
TGI (OVCAR-8 ovarian): 10.4 µM
GI50 (MCF7 breast): 2.38 µM
TGI (MCF7 breast): 13.2 µM
GI50 (NCI-H226 lung): 1.94 µM
TGI (NCI-H226 lung): 6.28 µM
GI50 (SK-MEL-28 melanoma): 3.77 µM
TGI (SK-MEL-28 melanoma): 22.8 µM
GI50 (SF-539 CNS): 2.81 µM
TGI (SF-539 CNS): 10.4 µM
GI50 (MALME-3M melanoma): 1.69 µM
TGI (MALME-3M melanoma): 10 µM
GI50 (SK-MEL-2 melanoma): 1.7 µM
TGI (SK-MEL-2 melanoma): 4.01 µM
GI50 (ACHN renal): 2.67 µM
TGI (ACHN renal): 11.4 µM
GI50 (PC-3 prostate): 2.33 µM
TGI (PC-3 prostate): 10.7 µM
GI50 (SW-620 colon): 3.27 µM
TGI (SW-620 colon): 13.6 µM
GI50 (SF-268 CNS): 3.24 µM
TGI (SF-268 CNS): 14.3 µM
GI50 (TK-10 renal): 2.92 µM
TGI (TK-10 renal): 7.26 µM
GI50 (EKVX NSCLC): 1.65 µM
TGI (EKVX NSCLC): 9.03 µM
GI50 (SN12C renal): 1.68 µM
TGI (SN12C renal): 10.1 µM
GI50 (DU-145 prostate): 3.4 µM
TGI (DU-145 prostate): 14.4 µM
GI50 (MDA-MB-231 breast): 1.19 µM
TGI (MDA-MB-231 breast): 2.72 µM
GI50 (HS 578T breast): 2.1 µM
TGI (HS 578T breast): 7.35 µM

C=C(C)[C@H]1C=C[C@@H](OC(C)=O)[C@@]2(COC(C)=O)[C@H](OC(=O)CCC)[C@H]3[C@@H](OC(C)=O)[C@@H](C)C[C@]3(O)C(=O)[C@@](C)(OC(C)=O)[C@H]12
TGI (HCT-116 colon): > 100 µM
TGI (RPMI-8226 leukemia): 66.7 µM
TGI (NCI/ADR-RES ovarian): > 100 µM
TGI (NCI-H23 lung): > 100 µM
TGI (KM12 colon): > 100 µM
TGI (LOX IMVI melanoma): > 100 µM
TGI (A498 renal): > 100 µM
TGI (U251 CNS): > 100 µM
TGI (UO-31 renal): > 100 µM
TGI (HOP-92 NSCLC): 69.8 µM
TGI (SNB-19 CNS): > 100 µM
TGI (MDA-MB-435): 44.2 µM
TGI (HCC-2998 colon): 86.5 µM
TGI (MOLT-4 leukemia): > 100 µM
TGI (SK-MEL-5 melanoma): > 100 µM
TGI (SNB-75 CNS): > 100 µM
TGI (COLO 205 colon): 65 µM
TGI (UACC-257 melanoma): > 100 µM
TGI (786-0 renal): > 100 µM
TGI (T-47D breast): 89.7 µM
TGI (HCT-15 colon): > 100 µM
TGI (HT29 colon): > 100 µM
TGI (CCRF-CEM leukemia): > 100 µM
TGI (SR leukemia): > 100 µM
TGI (NCI-H522 lung): > 100 µM
TGI (K-562 leukemia): > 100 µM
TGI (M14 melanoma): > 100 µM
TGI (NCI-H460 lung): > 100 µM
TGI (OVCAR-4 ovarian): > 100 µM
TGI (CAKI-1 renal): > 100 µM
TGI (HL-60(TB) leukemia): > 100 µM
TGI (A549 NSCLC): > 100 µM
TGI (RXF 393 renal): > 100 µM
TGI (UACC-62 melanoma): > 100 µM
TGI (IGROV1 ovarian): > 100 µM
TGI (OVCAR-5 ovarian): > 100 µM
TGI (OVCAR-8 ovarian): > 100 µM
TGI (BT-549 breast): > 100 µM
TGI (MCF7 breast): > 100 µM
TGI (NCI-H226 lung): > 100 µM
TGI (SK-MEL-28 melanoma): > 100 µM
TGI (MALME-3M melanoma): > 100 µM
TGI (SK-MEL-2 melanoma): > 100 µM
TGI (ACHN renal): > 100 µM
TGI (PC-3 prostate): > 100 µM
TGI (SW-620 colon): > 100 µM
TGI (SF-268 CNS): > 100 µM
TGI (TK-10 renal): > 100 µM
TGI (EKVX NSCLC): > 100 µM
TGI (SN12C renal): > 100 µM
TGI (MDA-MB-231 breast): > 100 µM
TGI (HS 578T breast): > 100 µM

CO[C@]12C=C/C(=C(/C(=O)OCc3cccnc3)C(=O)CCCCCCCC[C@]3(OC)C=C/C(=C(/C(=O)OCc4cccnc4)C(=O)CCCCCCCC1)O3)O2
GI50 (RPMI-8226 leukemia): 0.291 µM
TGI (RPMI-8226 leukemia): 0.927 µM
GI50 (KM12 colon): 0.207 µM
TGI (KM12 colon): 0.429 µM
GI50 (A498 renal): 0.432 µM
TGI (A498 renal): 1.72 µM
GI50 (HOP-92 NSCLC): 0.262 µM
TGI (HOP-92 NSCLC): 0.889 µM
GI50 (SNB-75 CNS): 0.247 µM
TGI (SNB-75 CNS): 1.2 µM
GI50 (OVCAR-3 ovarian): 0.312 µM
TGI (OVCAR-3 ovarian): 0.917 µM
GI50 (NCI-H522 lung): 0.225 µM
TGI (NCI-H522 lung): 0.554 µM
GI50 (K-562 leukemia): 0.337 µM
TGI (K-562 leukemia): 1.3 µM
GI50 (NCI-H460 lung): 0.321 µM
TGI (NCI-H460 lung): 1.02 µM
GI50 (HL-60(TB) leukemia): 0.337 µM
TGI (HL-60(TB) leukemia): 1.02 µM
GI50 (TK-10 renal): 0.583 µM
TGI (TK-10 renal): 1.96 µM
GI50 (DU-145 prostate): 0.375 µM
TGI (DU-145 prostate): 1.27 µM
